# Reference: US20100251435A1, “METHOD FOR GROWING SUGARCANE” (priority 2007, published 2010)
# Key:
# Assay type in all cases: in vivo
# [1] = tested on: sugar cane Variety RB 86-7515; assay: Greenhouse pot test, effect of formulated clothianidin on vigour; conditions: carretels; result in words
# Protocol: Greenhouse test with sugarcane buds growing in pots were conducted to study the effect of clothianidin equivalent to an application rate of 200 g ai. ha^−1 on “vigour”, evaluating tillers, plant height, leaf width and culm diameter. This trial was conducted on sugar cane Variety RB 86-7515.
# 1) carretel with one bud treated with clothianidin (200 g ai. ha^−1) 2) carretel with one bud treated with clothianidin (200 g ai. ha^−1)+15% v/v of polymer 3) stalk with 3 buds untreated 4) carretel with one bud untreated+15% v/v of polymer 5) carretel with one bud untreated 6) stalk with 3 buds treated with clothianidin (200 g ai. ha^−1).
# Twenty 1 L pots were filled with 16 L of clay soil, 1.6 L of sand and 8 g of nitrogen, 28 g of phosphorus (P2O5) and 16 g of potassium (K2O). Six carretels of 4 cm length with one bud were planted in each pot (treatments 1, 2, 4 and 5). Two stalks with three buds were planted in each control pot (treatments 3 and 6) to simulate conventional planting. A layer of 3 cm of soil was used to cover the carretels. The carretels of treatments 1 and 2 were treated with 200 g ai.ha^−1 of clothianidin, by dipping the carretels in a slurry for 3 min. The stalks were treated simulating a furrow application at 100 L.ha^−1 of slurry. The pots were maintained with adequate moisture during the test. […]
# [2] = tested on: sugar cane Variety RB 86-7515; assay: Greenhouse pot test, effect of formulated fipronil on vigour; conditions: result in words
# Protocol: Greenhouse test with sugarcane buds growing in pots were conducted to study the effect of fipronil equivalent to an application rate of 200 g. ha^−1 on “vigour”, evaluating tillers, plant height, leaf width and culm diameter on sugar cane Variety RB 86-7515.
# Twenty 1 L pots were filled with 16 L of clay soil, 1.6 L of sand and 8 g of nitrogen, 28 g of phosphorus (P2O5) and 16 g of potassium (K2O). Six carretels of 4 cm length with one bud were planted in each pot (treatments 1, 2, 4 and 5). Two stalks with three buds were planted in each control pot (treatments 3 and 6) to simulate conventional planting. A layer of 3 cm of soil was used to cover the carretels. The carretels of treatments 1 and 2 were treated with 200 g ai.ha^−1 of fipronil, by dipping the carretels in the slurry for 3 min, based on the uptake capacity of carretels. The stalks were treated simulating a furrow application at 100 L.ha^−1 of slurry. Experimental design adopted was randomized complete block with four replications. The pots were maintained with adequate moisture during the test. Evaluations of: plant height, leaf width, culm diameter and number of tillers were done at 20, 30 and 42 days after planting.
# [3] = tested on: sugar cane Variety RB 86 7515; assay: Greenhouse pot test, effect of formulated imidacloprid on vigour; conditions: result in words
# Source text: 1) carretel with one bud treated with Imidacloprid (1200 g. ha^−1) 2) carretel with one bud treated with Imidacloprid (1200 g. ha^−1)+15% v/v of polymer 3) stalk with 3 buds untreated 4) carretel with one bud untreated 5) carretel with one bud untreated+15% v/v of polymer 6) stalk with 3 buds treated with Imidacloprid (1200 g. ha^−1).
# Twenty 1 L pots were filled with 16 L of clay soil, 1.6 L of sand and 8 g of nitrogen, 28 g of phosphorus (P2O5) and 16 g of potassium (K2O). Six carretels of 4 cm length with one bud were planted in each pot (treatments 1, 2, 4 and 5). Two stalks with three buds were planted in each control pot (treatments 3 and 6) to simulate conventional planting. A layer of 3 cm of soil was used to cover the carretels. The carretels of treatments 1 and 2 were treated with 1200 g ai.ha^−1 of imidacloprid, by dipping the carretels in the slurry for 3 min, based on the uptake capacity of carretels. The stalks were treated simulating a furrow application at 100 L.ha^−1 of slurry. Experimental design adopted was randomized complete block with four replications. The pots were maintained with adequate moisture during the test. Evaluations of: plant height, leaf width, culm diameter and number of tillers were done at 20, 30 and 42 days after planting.
# [4] = tested on: sugar cane Variety RB 86-7515; assay: Greenhouse pot test, effect of formulated thiamethoxam on vigour; conditions: result in words
# Protocol: This trial was conducted on Variety RB 86-7515.
# [5] = tested on: sugar cane Variety RB 86-7515; assay: Greenhouse pot test, effect of formulated abamectin on vigour
# Protocol: Greenhouse test with sugarcane buds growing in pots were conducted to study the effect of formulated abamectin regarding “vigour”, tillers, plant height, leaf width and culm diameter on sugar cane Variety RB 86-7515.
# 1) carretel with one bud treated with abamectin 2) carretel with one bud treated with abamectin+15% v/v of polymer 3) stalk with 3 buds untreated 4) carretel with one bud untreated 5) carretel with one bud untreated+15% v/v of polymer 6) stalk with 3 buds treated with abamectin.
# Twenty 1 L pots were filled with 16 L of clay soil, 1.6 L of sand and 8 g of nitrogen, 28 g of phosphorus (P2O5) and 16 g of potassium (K2O). Six carretels of 4 cm length with only one bud were planted in each pot (treatments 1, 2, 4 and 5). Two stalks with three buds were planted in each control pot (treatments 3 and 6) to simulate conventional planting. A layer of 3 cm of soil was used to cover the carretels. The carretels of treatments 1, 2 were treated with 200 ml/ha of abamectin, by dipping the carretels in the slurry for 3 min, based on the uptake capacity of carretels. The stalks were treated simulating a furrow application at 100 L.ha^−1 of slurry. Experimental design adopted was randomized complete block with four replications. The pots were maintained with adequate moisture during the test. Evaluations of: plant height, leaf width, culm diameter and number of tillers were done at 20, 30 and 42 days after planting.
molecule,measurement,setting,value
"CN/C(=N\[N+](=O)[O-])NCc1cnc(Cl)s1 [Clothianidin, clothianidin]","number of tillers in comparison with the corresponding control experiment (untreated, one-bud)",[1],increased
same,"plant height in comparison with the corresponding control experiment (untreated, one-bud)",[1],slight reduction
"N#Cc1nn(-c2c(Cl)cc(C(F)(F)F)cc2Cl)c(N)c1[S+]([O-])C(F)(F)F (stereo not drawn) [Fipronil, fipronil]",height of the resultant plants in comparison with the control,[2],decreased
same,number of tillers in comparison with the control,[2],increased
"O=[N+]([O-])NC1=NCCN1Cc1ccc(Cl)nc1 [Imidacloprid, imidacloprid]",number of tillers in comparison with the control,[3],increase
same,size of the effect compared with the other active ingredients,[3],less pronounced than with the other active ingredients
"CN1COCN(Cc2cnc(Cl)s2)/C1=N\[N+](=O)[O-] [Thiamethoxam, thiamethoxam]",number of tillers in comparison with the corresponding controls,[4]; carretels,increased
same,plant height in comparison with the corresponding controls,[4]; carretels,reduced
same,"overall ""quality"" compared with the other treatments","[4]; practical assessment, not apparent from the listed parameters",increase in “quality” greater than the other treatments
abamectin,Tillers,"[5]; Carretel with one bud, 100 g ai/ha, dipped in slurry 3 min, 42 days after planting",14 number
same,number of tillers in comparison with the control,[5]; result in words,increase
same,plant height in comparison with the control,[5]; result in words,decrease
